Measured values from the NIST ThermoML archive (doi:10.1021/je3013205).
± gives the expanded uncertainty stated by the source.

Settings: 101 kPa, Liquid, Vibrating tube method

SMILES | mass density (283.15 K) [kg/m3] | mass density (293.15 K) [kg/m3] | mass density (303.15 K) [kg/m3] | mass density (313.15 K) [kg/m3] | mass density (323.15 K) [kg/m3] | mass density (333.15 K) [kg/m3] | mass density (343.15 K) [kg/m3]
OCCO [1,2-ethanediol] | 1119.29 ± 0.33 | 1112.37 ± 0.32 | 1105.39 ± 0.31 | 1098.34 ± 0.31 | 1091.21 ± 0.3 | 1083.99 ± 0.3 | 1076.65 ± 0.29
NCCOCCO [2-(2-aminoethoxy)ethanol] | 1063.9 ± 0.97 | 1055.86 ± 0.95 | 1047.8 ± 0.94 | 1039.73 ± 0.92 | 1031.63 ± 0.9 | 1023.46 ± 0.89 | 1015.24 ± 0.87
NCCO [2-aminoethan-1-ol] | 1024.11 ± 0.25 | 1016.23 ± 0.24 | 1008.32 ± 0.24 | 1000.37 ± 0.23 | 992.364 ± 0.23 | 984.301 ± 0.23 | 976.153 ± 0.23
CO [methanol] | 801.254 ± 0.14 | 791.866 ± 0.14 | 782.43 ± 0.15 | 772.902 ± 0.15 | 763.244 ± 0.15 | 753.389 ± 0.16 | –
CC(C)O [propan-2-ol] | 794.005 ± 0.12 | 785.764 ± 0.13 | 777.284 ± 0.13 | 768.476 ± 0.13 | 759.309 ± 0.14 | 749.679 ± 0.14 | 739.528 ± 0.14
